The values that follow come from patent publication US10004701B2, “Methods and compositions for treating infection” (UNIVERSITY OF ROCHESTER, priority 2012, dated 2018).

Counter-ions that a name gives are not always drawn. Like-named read-outs stand apart in the source and are kept apart here.

What all share (assay): AK assay 384-well format, Prestwick library screening
For one experiment, the system named is E. cloacae. The class given is cell-based, Enterobacter cloacae. The note with it: 50 μM final drug concentration; for fold induction at 50 µM: Enterobacter cloacae, 3 h.
Experiment [1] has as its system S. aureus strain USA300-0114. The class given is cell-based, Staphylococcus aureus. The note with it: 50 μM final drug concentration; for fold induction at 50 µM: Staphylococcus aureus, USA300, 3 h.
Another experiment has as its system E. coli. The class given is cell-based, Escherichia coli. To be noted: 50 μM final drug concentration; for fold induction at 50 µM: Escherichia coli, 3 h.
The test system of a further experiment is K. pneumoniae. Type of experiment: cell-based, Klebsiella pneumoniae. To be noted: 50 μM final drug concentration; for fold induction at 50 µM: Klebsiella pneumoniae, 3 h.
For another experiment, the system named is P. aeruginosa. The class given is cell-based, Pseudomonas aeruginosa. The note with it: 50 μM final drug concentration; for fold induction at 50 µM: Pseudomonas aeruginosa, 3 h.
Another experiment has as its system E. faecium. Type of experiment: cell-based, Enterococcus faecium. The note with it: 50 μM final drug concentration; for fold induction at 50 µM: Enterococcus faecium, 3 h.
Experiment [2] deals with A. baumannii strain 98-37-09. The class given is cell-based, Acinetobacter baumannii. To be noted: 50 μM final drug concentration; for fold induction at 50 µM: Acinetobacter baumannii, 983709, 3 h.
Setting [3] is: cutoff for positive-scoring molecules 3-fold increase.
[4] abbreviates: planktonic, cutoff for positive 3-fold increase.

For the compound Trimeprazine tartrate, in the experiment with E. cloacae (setting [3]), the “AK-based Prestwick Library Screening Results, E. cloacae (fold increase in extracellular AK activity)” value is 1.5. The “AK-based Prestwick Library Screening Results, S. aureus (fold increase in extracellular AK activity)” value in experiment [1] (setting [3]) amounted to 1.1. In addition, the “AK-based Prestwick Library Screening Results, E. coli (fold increase in extracellular AK activity)” value in the experiment with E. coli (setting [3]) was 1.2. Besides, the “AK-based Prestwick Library Screening Results, K. pneumoniae (fold increase in extracellular AK activity)” value in the experiment on K. pneumoniae (setting [3]) is 0.9. The “AK-based Prestwick Library Screening Results, P. aeruginosa (fold increase in extracellular AK activity)” value in the experiment on P. aeruginosa (setting [3]) was 1.2. In the experiment on E. faecium (setting [3]), the “AK-based Prestwick Library Screening Results, E. faecium (fold increase in extracellular AK activity)” value was 1.0. The “AK-based Prestwick Library Screening Results, A. baumannii (fold increase in extracellular AK activity)” value in experiment [2] (setting [3]) came out at 1.1.

Consider `C=C1c2c(Cl)ccc(O)c2C(=O)C2=C(O)[C@]3(O)C(=O)C(C(N)=O)=C(O)[C@@H](N(C)C)[C@@H]3[C@@H](O)[C@H]12.O=C(O)c1cc(S(=O)(=O)O)ccc1O` [Meclocycline sulfosalicylate], for which the “AK-based Prestwick Library Screening Results, E. cloacae (fold increase in extracellular AK activity)” value in the experiment on E. cloacae (setting [4]) is 2.1. In experiment [1] (setting [4]), the “AK-based Prestwick Library Screening Results, S. aureus (fold increase in extracellular AK activity)” value is listed as 4.3. Also, the “AK-based Prestwick Library Screening Results, E. coli (fold increase in extracellular AK activity)” value with E. coli (setting [4]) is 0.8. Moreover, the “AK-based Prestwick Library Screening Results, K. pneumoniae (fold increase in extracellular AK activity)” value in the experiment on K. pneumoniae (setting [4]) was found to be 0.3. Besides, the “AK-based Prestwick Library Screening Results, P. aeruginosa (fold increase in extracellular AK activity)” value with P. aeruginosa (setting [4]) is 0.5. The “AK-based Prestwick Library Screening Results, E. faecium (fold increase in extracellular AK activity)” value in the experiment with E. faecium (setting [4]) came to 1.0. The “AK-based Prestwick Library Screening Results, A. baumannii (fold increase in extracellular AK activity)” value in experiment [2] (setting [4]) was 3.2.

For `Nc1cc(C(Cl)=C(Cl)Cl)c(S(N)(=O)=O)cc1S(N)(=O)=O` [Clorsulon], the fold induction at 50 µM in the experiment with E. cloacae (planktonic, cutoff for positive 3-fold increase, read-out: AK-based Prestwick Library Screening Results, E. cloacae (fold increase in extracellular AK activity)) was 1.7; in experiment [1] (planktonic, cutoff for positive 3-fold increase, read-out: AK-based Prestwick Library Screening Results, S. aureus (fold increase in extracellular AK activity)), 1.5; with E. coli (planktonic, cutoff for positive 3-fold increase, read-out: AK-based Prestwick Library Screening Results, E. coli (fold increase in extracellular AK activity)) it was 1; in the experiment with K. pneumoniae (planktonic, cutoff for positive 3-fold increase, read-out: AK-based Prestwick Library Screening Results, K. pneumoniae (fold increase in extracellular AK activity)), 1; with P. aeruginosa (planktonic, cutoff for positive 3-fold increase, read-out: AK-based Prestwick Library Screening Results, P. aeruginosa (fold increase in extracellular AK activity)), 1.1; in the experiment on E. faecium (planktonic, cutoff for positive 3-fold increase, read-out: AK-based Prestwick Library Screening Results, E. faecium (fold increase in extracellular AK activity)), 1.4. In addition, the fold induction at 50 µM in experiment [2] (planktonic, cutoff for positive 3-fold increase, read-out: AK-based Prestwick Library Screening Results, A. baumannii (fold increase in extracellular AK activity)) turned out to be 1.

On to `O=C([O-])c1ccccc1-c1c2cc(Br)c(=O)cc-2oc2[c]([Hg+])c([O-])c(Br)cc12.[Na+].[Na+].[OH-]` [Merbromin], for which the “AK-based Prestwick Library Screening Results, E. cloacae (fold increase in extracellular AK activity)” value in the experiment on E. cloacae ([…]) came to 1.4. For the same compound, the “AK-based Prestwick Library Screening Results, S. aureus (fold increase in extracellular AK activity)” value in experiment [1] ([…]) amounted to 0.2. Moreover, the “AK-based Prestwick Library Screening Results, E. coli (fold increase in extracellular AK activity)” value in the experiment on E. coli ([…]) was found to be 0.5. Moreover, in the experiment on K. pneumoniae ([…]), the “AK-based Prestwick Library Screening Results, K. pneumoniae (fold increase in extracellular AK activity)” value is 0.4. In addition, in the experiment with P. aeruginosa ([…]), the “AK-based Prestwick Library Screening Results, P. aeruginosa (fold increase in extracellular AK activity)” value was 0.4. Also, in the experiment on E. faecium ([…]), the “AK-based Prestwick Library Screening Results, E. faecium (fold increase in extracellular AK activity)” value is 0.6. The “AK-based Prestwick Library Screening Results, A. baumannii (fold increase in extracellular AK activity)” value in experiment [2] ([…]) was 0.7.

As to `CN(C)c1ccc(O)c2c1C[C@H]1C[C@H]3[C@H](N(C)C)C(O)=C(C(N)=O)C(=O)[C@@]3(O)C(O)=C1C2=O` [Minocycline hydrochloride], the fold induction at 50 µM in the experiment on E. cloacae (planktonic E. cloacae, 384-well, cutoff for positive-scoring molecules 3-fold increase, read-out: AK-based Prestwick Library Screening Results: E. cloacae (increase in extracellular AK activity)) amounted to 0.9; in experiment [1] (planktonic S. aureus, 384-well, cutoff for positive-scoring molecules 3-fold increase, read-out: AK-based Prestwick Library Screening Results: S. aureus (increase in extracellular AK activity)), 6.9; in the experiment with E. coli (planktonic E. coli, 384-well, cutoff for positive-scoring molecules 3-fold increase, read-out: AK-based Prestwick Library Screening Results: E. coli (increase in extracellular AK activity)) it was 2.3; with K. pneumoniae (planktonic K. pneumoniae, 384-well, cutoff for positive-scoring molecules 3-fold increase, read-out: AK-based Prestwick Library Screening Results: K. pneumoniae (increase in extracellular AK activity)), 0.6; with P. aeruginosa (planktonic P. aeruginosa, 384-well, cutoff for positive-scoring molecules 3-fold increase, read-out: AK-based Prestwick Library Screening Results: P. aeruginosa (increase in extracellular AK activity)) it was 0.7; with E. faecium (planktonic E. faecium, 384-well, cutoff for positive-scoring molecules 3-fold increase, read-out: AK-based Prestwick Library Screening Results: E. faecium (increase in extracellular AK activity)), 1.1. The fold induction at 50 µM in experiment [2] (planktonic A. baumannii, 384-well, cutoff for positive-scoring molecules 3-fold increase, read-out: AK-based Prestwick Library Screening Results: A. baumannii (increase in extracellular AK activity)) was determined as 3.9.
